Like-named read-outs stand apart in the source and are kept apart here.
System: 6C3HED lymphosarcoma
Experiment: animal or person
Format: in vivo
Settings: for inhibition in vivo at 75 mg/kg: read-out: % inhibition of tumor growth, oral, 75 mg/kg, BIDX 8
Protocol: The compounds were tested in C3H mice bearing a 6C3HED lymphosarcoma, also known as the Gardner lymphosarcoma (GLS), and in a variety of human tumor xenografts in CD1 nu/nu mice, including CX-1, LX-1, HXGC3, and VRC5. The 6C3HED lymphosarcoma was obtained from the Division of Cancer Treatment, National […] Institute, Tumor Bank, maintained at E. G. and G. Mason Research (Worcester, Mass.). The CX-1 human colon carcinoma and the LX-1 human lung carcinoma xenografts were obtained from the National Cancer Institute. The HXGC3 and VRC5 human colon xenografts were obtained from Dr. P. J. Houghton, St. Jude Children's Hospital in Memphis (see Br. J. Cancer, 37, 213 (1978)). First passage tumor was stored in liquid nitrogen using standard techniques. The transplanted tumor was reestablished from the Tumor Bank every six months or as needed. The tumor was maintained by serial passage twice weekly in C3H mice.
In the procedure the tumor was removed from passage animals and minced into 1- to 3-mm square fragments using sterile techniques. Tumor pieces were checked for sterility using both Antibiotic Medium 1 and Brain Heart Infusion (Difco, Detroit, Mich.). Recipient mice were shaved and tumor pieces were implanted subcutaneously in the auxiliary region by trocar. Drug therapy on the appropriate schedule was initiated on the day after tumor implant for 6C3HED and after a seven (7) day delay for xenografts (or other delay as noted in Table 2). The compound being tested was mixed with 2.5% Emulphor EL620 from GAF Corporation (1:40 dilution in saline). Food and water were provided ad libitium. The drug was administered orally in 0.5 ml of 2.5% Emulphor (unless otherwise indicated). The tumor was measured the day after treatment ended with two dimensional measurements (width and length) of the tumor taken using automated digital calipers interfaced to a microcomputer. Approximate weight for the tumor was calculated using the following formula [Worzalla, J. F., et al., Invest. New Drugs, 8, 241 (1990], (tumor weight in mg)=(width in mm)^2 ×(length in mm)/2.
At least one control group of an equal number of mice was treated with the same volume of 2.5% Emulphor only. The percent inhibition was determined by subtracting the ratio of the mean tumor size of the test group relative to the control group from one and multiplying the result times 100.
The results of several experiments in mice bearing a 6C3HED lymphosarcoma (or other tumor where indicated) when the indicated compounds were administered are provided in Table 2. In Table 2, column 1 gives the Example number of the compound used, column 2 lists the dose level in mg/kg, column 3 provides the percent inhibition of tumor growth, column 4 gives the number of mice which died relative to the total number of animals in the group, column 5 gives the method of administration of the compound, and column 6 gives the dosage schedule. The protocol used with other tumors was the same as with the 6C3HED lymphosarcoma.

[1] = Mus musculus, 6C3HED, ip, read-out: % inhibition of tumor growth, IP, 150 mg/kg, DX 8
[2] = Mus musculus, 6C3HED, po, read-out: % inhibition of tumor growth, oral, 150 mg/kg, BIDX 8
[3] = Mus musculus, 6C3HED, po, read-out: % inhibition of tumor growth, oral, 300 mg/kg, BIDX 8
[4] = Mus musculus, 6C3HED, ip, read-out: % inhibition of tumor growth, IP, 300 mg/kg, DX 8
[5] = Mus musculus, 6C3HED, po, read-out: % inhibition of tumor growth, oral, 25 mg/kg, DX 8
[6] = Mus musculus, 6C3HED, po, read-out: % inhibition of tumor growth, oral, 50 mg/kg, DX 8

CC(=O)OCc1ccc(S(=N)(=O)NC(=O)Nc2ccc(Cl)cc2)cc1 (stereo not drawn) [Example 49, N-[[(4-chlorophenyl)amino]carbonyl]-4-(acetoxymethyl)benzenesulfonimidamide]
Tox/Tot (mice which died / total) (IP, 12.5 mg/kg, DX 8): 0/10 | Tox/Tot (mice which died / total) (IP, 25 mg/kg, DX 8): 0/10 | Tox/Tot (mice which died / total) (IP, 50 mg/kg, DX 8): 1/10 | Tox/Tot (mice which died / total) (IP, 150 mg/kg, DX 8): 8/10 | % inhibition of tumor growth (IP, 300 mg/kg, DX 8): TOX | Tox/Tot (mice which died / total) (IP, 300 mg/kg, DX 8): 10/10 | inhibition in vivo at 12.5 mg/kg (Mus musculus, 6C3HED, ip, read-out: % inhibition of tumor growth, IP, 12.5 mg/kg, DX 8): 29% | inhibition in vivo at 25 mg/kg (Mus musculus, 6C3HED, ip, read-out: % inhibition of tumor growth, IP, 25 mg/kg, DX 8): 36% | inhibition in vivo at 50 mg/kg (Mus musculus, 6C3HED, ip, read-out: % inhibition of tumor growth, IP, 50 mg/kg, DX 8): 63% | inhibition in vivo at 150 mg/kg [1]: 99% | inhibition in vivo at 25 mg/kg (Mus musculus, 6C3HED, po, read-out: % inhibition of tumor growth, oral, 25 mg/kg, BIDX 8): 64% | inhibition in vivo at 50 mg/kg (Mus musculus, 6C3HED, po, read-out: % inhibition of tumor growth, oral, 50 mg/kg, BIDX 8): 87% | inhibition in vivo at 75 mg/kg (Mus musculus, 6C3HED, po): 96% | inhibition in vivo at 150 mg/kg [2]: 99% | inhibition in vivo at 300 mg/kg [3]: 100% | Tox/Tot (mice which died / total) (oral, 25 mg/kg, BIDX 8): 0/10 | Tox/Tot (mice which died / total) (oral, 50 mg/kg, BIDX 8): 0/10 | Tox/Tot (mice which died / total) (oral, 75 mg/kg, BIDX 8): 0/10 | Tox/Tot (mice which died / total) (oral, 150 mg/kg, BIDX 8): 0/10 | Tox/Tot (mice which died / total) (oral, 300 mg/kg, BIDX 8): 3/10

N=S(=O)(NC(=O)Nc1ccc(Cl)cc1)c1ccc(C=O)cc1 (stereo not drawn) [Example 51, N-[[(4-chlorophenyl)amino]carbonyl]-4-formylbenzenesulfonimidamide]
Tox/Tot (mice which died / total) (IP, 150 mg/kg, DX 8): 0/10 | Tox/Tot (mice which died / total) (IP, 300 mg/kg, DX 8): 9/10 | inhibition in vivo at 150 mg/kg [1]: 80% | inhibition in vivo at 300 mg/kg [4]: 99%

N=S(=O)(NC(=O)Nc1ccc(Cl)cc1)c1ccc2c(c1)CCC2 (stereo not drawn) [Example 54, N-[[(4-chlorophenyl)amino]carbonyl]-5-indanylsulfonimidamide]
Tox/Tot (mice which died / total) (IP, 12.5 mg/kg, BIDX 8): 0/10 | Tox/Tot (mice which died / total) (IP, 25 mg/kg, BIDX 8): 0/10 | Tox/Tot (mice which died / total) (IP, 50 mg/kg, BIDX 8): 0/10 | Tox/Tot (mice which died / total) (IP, 100 mg/kg, BIDX 8): 0/10 | Tox/Tot (mice which died / total) (IP, 150 mg/kg, DX 8): 1/10 | Tox/Tot (mice which died / total) (IP, 300 mg/kg, DX 8): 3/10 | Tox/Tot (mice which died / total) (IV, 12.5 mg/kg, DX 8): 0/10 | Tox/Tot (mice which died / total) (IV, 25 mg/kg, DX 8): 0/10 | inhibition in vivo at 12.5 mg/kg (Mus musculus, 6C3HED, ip, read-out: % inhibition of tumor growth, IP, 12.5 mg/kg, BIDX 8): 6% | inhibition in vivo at 25 mg/kg (Mus musculus, 6C3HED, ip, read-out: % inhibition of tumor growth, IP, 25 mg/kg, BIDX 8): 30% | inhibition in vivo at 50 mg/kg (Mus musculus, 6C3HED, ip, read-out: % inhibition of tumor growth, IP, 50 mg/kg, BIDX 8): 44% | inhibition in vivo at 100 mg/kg (Mus musculus, 6C3HED, ip, read-out: % inhibition of tumor growth, IP, 100 mg/kg, BIDX 8): 70% | inhibition in vivo at 150 mg/kg [1]: 86% | inhibition in vivo at 300 mg/kg [4]: 94% | inhibition in vivo at 12.5 mg/kg (Mus musculus, 6C3HED, iv, read-out: % inhibition of tumor growth, IV, 12.5 mg/kg, DX 8): 3% | inhibition in vivo at 25 mg/kg (Mus musculus, 6C3HED, iv, read-out: % inhibition of tumor growth, IV, 25 mg/kg, DX 8): 19% | inhibition in vivo at 150 mg/kg [2]: 22% | inhibition in vivo at 300 mg/kg [3]: 33% | inhibition in vivo at 600 mg/kg (Mus musculus, 6C3HED, po, read-out: % inhibition of tumor growth, oral, 600 mg/kg, DX 8): 34% | Tox/Tot (mice which died / total) (oral, 150 mg/kg, BIDX 8): 0/10 | Tox/Tot (mice which died / total) (oral, 150 mg/kg, DX 8): 0/10 | Tox/Tot (mice which died / total) (oral, 300 mg/kg, BIDX 8): 0/10 | Tox/Tot (mice which died / total) (oral, 300 mg/kg, DX 8): 0/10 | Tox/Tot (mice which died / total) (oral, 600 mg/kg, DX 8): 0/10

CN=S(=O)(NC(=O)Nc1ccc(Cl)cc1)c1ccc2c(c1)CCC2 (stereo not drawn) [Example 55, N-[[(4-chlorophenyl)amino]carbonyl]-N'-methyl-5-indanylsulfonimidamide]
inhibition in vivo at 75 mg/kg (Mus musculus, 6C3HED, po): 70% | inhibition in vivo at 150 mg/kg [2]: 75% | Tox/Tot (mice which died / total) (oral, 75 mg/kg, BIDX 8): 0/10 | Tox/Tot (mice which died / total) (oral, 150 mg/kg, BIDX 8): 1/10

Cc1cc(S(N)(=O)=NC(=O)Nc2ccc(Cl)cc2)cc(C)c1Cl (stereo not drawn) [Example 61]
Tox/Tot (mice which died / total) (IP, 150 mg/kg, DX 8): 2/10 | % inhibition of tumor growth (IP, 300 mg/kg, DX 8): TOX | Tox/Tot (mice which died / total) (IP, 300 mg/kg, DX 8): 10/10 | inhibition in vivo at 150 mg/kg [1]: 72% | inhibition in vivo at 150 mg/kg [2]: 0% | inhibition in vivo at 300 mg/kg [3]: 0% | Tox/Tot (mice which died / total) (oral, 150 mg/kg, BIDX 8): 0/10 | Tox/Tot (mice which died / total) (oral, 300 mg/kg, BIDX 8): 0/10

CNS(=O)(=NC(=O)Nc1ccc(Cl)cc1)c1ccc(C)c(C)c1 (stereo not drawn) [Example 62]
inhibition in vivo at 25 mg/kg [5]: 98% | inhibition in vivo at 50 mg/kg [6]: 99% | Tox/Tot (mice which died / total) (oral, 25 mg/kg, DX 8): 0/10 | Tox/Tot (mice which died / total) (oral, 50 mg/kg, DX 8): 2/10

CC(=O)N(C)S(=O)(=NC(=O)Nc1ccc(Cl)cc1)c1ccc(C)c(C)c1 (stereo not drawn) [Example 63]
inhibition in vivo at 25 mg/kg [5]: 79% | inhibition in vivo at 50 mg/kg [6]: 95% | Tox/Tot (mice which died / total) (oral, 25 mg/kg, DX 8): 0/10 | Tox/Tot (mice which died / total) (oral, 50 mg/kg, DX 8): 0/10

CNS(=O)(=NC(=O)N(C)c1ccc(Cl)cc1)c1ccc(C)cc1 (stereo not drawn) [Example 65]
inhibition in vivo at 150 mg/kg [2]: 91% | inhibition in vivo at 300 mg/kg [3]: 97% | Tox/Tot (mice which died / total) (oral, 150 mg/kg, BIDX 8): 0/10 | Tox/Tot (mice which died / total) (oral, 300 mg/kg, BIDX 8): 0/10
